Test results from US9951045B2, “Indazole compounds as 5-HT4 receptor agonists” (SUVEN LIFE SCIENCES LIMITED, priority 2013, dated 2018).
Counter-ions that a name gives are not always drawn.

Biological target: T1, recombinant human 5-HT4 receptor (Homo sapiens, UniProt Q13639)
T1 construct: expressed in transfected cells
Experiment: Determination of EC50 values for 5-HT4 receptor (CHO cells, pCRE-Luc reporter)
Assay type: cell-based
Details: luciferase reporter, 4 hours incubation, read-out: 5-HT4 receptor agonistic binding in-vitro EC50
Procedure: A stable CHO cell line expressing recombinant human 5-HT4 receptor and pCRE-Luc reporter system was used for cell-based assay. The assay offers a non-radioactive based approach to determine binding of a compound to GPCRs. In this specific assay, the level of intracellular cyclic AMP, which is modulated by activation, or inhibition of the receptor is measured. The recombinant cells harbor luciferase reporter gene under the control of cAMP response element.
The above cells were grown in 96 well clear bottom white plates in Hams F12 medium containing 10% fetal bovine serum (FBS). Prior to the addition of compounds or standard agonist, cells were serum starved overnight. Increasing concentrations of test compounds were added in OptiMEM medium to the cells. The incubation was continued at 37° C. in CO2 incubator for 4 hours. Medium was removed and cells were washed with phosphate buffered saline. The cells were lysed and luciferase activity was measured in a Luminometer. Luminescence units were plotted against the compound concentrations using Graphpad software. EC50 values of the compounds were defined as the concentration required in stimulating the luciferase activity by 50%.

T1 sequence (Q13639 whole entry): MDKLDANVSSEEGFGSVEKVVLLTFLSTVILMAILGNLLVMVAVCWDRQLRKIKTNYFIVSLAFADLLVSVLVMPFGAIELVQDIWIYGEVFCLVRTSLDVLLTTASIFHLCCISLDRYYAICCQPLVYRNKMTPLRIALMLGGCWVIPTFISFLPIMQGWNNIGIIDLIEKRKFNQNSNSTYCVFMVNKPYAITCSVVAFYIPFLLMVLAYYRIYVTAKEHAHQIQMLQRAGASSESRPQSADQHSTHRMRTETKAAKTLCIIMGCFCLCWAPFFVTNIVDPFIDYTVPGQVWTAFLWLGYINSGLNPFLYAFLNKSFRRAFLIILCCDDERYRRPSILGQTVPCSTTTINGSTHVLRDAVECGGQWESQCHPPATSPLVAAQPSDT

SMILES | EC50 [nM]
CC(C)n1cc2cccc(C(=O)NCC3(F)CCN(CC4CCOCC4)CC3)c2n1 [Example 22, N—[(N-tetrahydropyran-4-ylmethyl)-4-fluoropiperidin-4-ylmethyl]-2-isopropyl-2H-indazole-7-carboxamide] | 1.1 to 5
COC(C)(C)CN1CCC(CNC(=O)c2cccc3cn(C(C)C)nc23)CC1 [Example 33, N—[N-(2-Methoxy-2-methylpropyl)piperidin-4-ylmethyl]-2-isopropyl-2H-indazole-7-carboxamide] | ≤ 1
CCn1cc2cccc(C(=O)NCC3CCN(CCCOC)CC3)c2n1 [Example 4, N—[N-(3-methoxypropyl)piperidin-4-ylmethyl]-2-ethyl-2H-indazole-7-carboxamide fumarate] | ≤ 1
CC(C)n1cc2cccc(C(=O)NCC3(F)CCN(CC4(O)CCOCC4)CC3)c2n1 [Example 31, N—[N-(4-hydroxytetrahydropyran-4-ylmethyl)-4-fluoropiperidin-4-ylmethyl]-2-isopropyl-2H-indazole-7-carboxamide L(+) Tartarate] | 1.1 to 5
CC(C)n1cc2cccc(C(=O)NCC3C4CN(CC5CCOCC5)CC34)c2n1 (centres unmarked) [Example 10, N—[N-(tetrahydropyran-4-ylmethyl)-3-azabicyclo[3.1.0]hexane-6-ylmethyl]-2-isopropyl-2H-indazole-7-carboxamide] | 1.1 to 5
CC(C)n1cc2cccc(C(=O)NCC3CCN(CC4(O)CCOCC4)CC3)c2n1 [Example 17, N—[N-(4-hydroxytetrahydropyran-4-ylmethyl)piperidin-4-ylmethyl]-2-isopropyl-2H-indazole-7-carboxamide fumarate] | ≤ 1
CC(C)n1cc2cccc(C(=O)NCC3CCN(C4CCC4)CC3)c2n1 [Example 14, N—(N-cyclobutylpiperidin-4-ylmethyl)-2-isopropyl-2H-indazole-7-carboxamide fumarate] | ≤ 1
CC(C)n1cc2cccc(-c3nnc(C4CCN(CC5CCOCC5)CC4)o3)c2n1 [Example 38, 2-Isopropyl-7-{5-[1-(tetrahydropyran-4-ylmethyl)piperidin-4-yl]-[1,3,4]oxadiazol-2-yl}-2H-indazole fumarate] | 5.1 to 20
CC(C)n1cc2cccc(C(=O)NCC3CCN(C4CCCCC4)CC3)c2n1 [Example 15, N—(N-cyclohexylpiperidin-4-ylmethyl)-2-isopropyl-2H-indazole-7-carboxamide fumarate] | ≤ 1
COCCCN1CCC(CNC(=O)c2cccc3cn(C(C)C)nc23)CC1 [Example 24, N—[N-(3-methoxypropyl)piperidin-4-ylmethyl]-2-isopropyl-2H-indazole-7-carboxamide fumarate] | ≤ 1
CC(C)n1cc2cccc(C(=O)NCC3CCN(CCC(C)(C)O)CC3)c2n1 [Example 29, N—[N-(3-Hydroxy-3-methylbutyl)piperidin-4-ylmethyl]-2-isopropyl-2H-indazole-7-carboxamide] | ≤ 1
CC(C)n1cc2cccc(C(=O)NCC3CCN(CC(C)(C)CO)CC3)c2n1 [Example 6, N—[N-(3-hydroxy-2,2-dimethylpropyl)piperidin-4-ylmethyl]-2-isopropyl-2H-indazole-7-carboxamide L(+) Tartarate] | ≤ 1
COCCCN1CCC(O)(CNC(=O)c2cccc3cn(C(C)C)nc23)CC1 [Example 28, N—[N-(3-methoxypropyl)-4-hydroxypiperidin-4-ylmethyl]-2-isopropyl-2H-indazole-7-carboxamide fumarate] | 1.1 to 5
CC(C)n1cc2cccc(C(=O)NCC3(O)CCN(CC4CCOCC4)CC3)c2n1 [Example 26, N—[(N-tetrahydropyran-4-ylmethyl)-4-hydroxypiperidin-4-ylmethyl]-2-isopropyl-2H-indazole-7-carboxamide fumarate] | 1.1 to 5
CC(C)n1cc2cccc(C(=O)NCC3CCN(CC(C)(C)F)CC3)c2n1 [Example 34, N—[N-(2-fluoro-2-methylpropyl)piperidin-4-ylmethyl]-2-isopropyl-2H-indazole-7-carboxamide L(+) Tartarate] | ≤ 1
CC(C)n1cc2cccc(C(=O)NCC3CCN(CC4CCOC4)CC3)c2n1 (centres unmarked) [Example 23, N—[(N-tetrahydrofuran-3-ylmethyl)piperidin-4-ylmethyl]-2-isopropyl-2H-indazole-7-carboxamide] | ≤ 1
CC(C)n1cc2cccc(-c3nnc(C4CCN(C5CCOCC5)CC4)o3)c2n1 [Example 39, 2-Isopropyl-7-{5-[1-(tetrahydropyran-4-yl)piperidin-4-yl]-[1,3,4]oxadiazol-2-yl}-2H-indazole fumarate] | 1.1 to 5
COCCCN1CCC(c2nnc(-c3cccc4cn(C(C)C)nc34)o2)CC1 [Example 37, 2-isopropyl-7-{5-[1-(3-methoxypropyl)piperidin-4-yl]-[1,3,4]oxadiazol-2-yl)}-2H-indazole fumarate] | 5.1 to 20

SMILES | EC50 [nM]
CC(C)n1cc2cccc(C(=O)NCC3CCN(CC4(O)CCCC4)CC3)c2n1 [Example 11, N—[N-(1-hydroxycyclopentylmethyl)piperidin-4-ylmethyl]-2-isopropyl-2H-indazole-7-carboxamide L(+) tartarate] | ≤ 1
CC(C)n1cc2cccc(C(=O)NCC3CN(Cc4ccccc4)CCO3)c2n1 (centres unmarked) [Example 8, N—[N-benzylmorpholin-2-ylmethyl]-2-isopropyl-2H-indazole-7-carboxamide fumarate] | 20.1 to 50
CC(C)N1CCC(NC(=O)c2cccc3cn(C(C)C)nc23)CC1 [Example 19, N—(N-isopropylpiperidine-4-yl)-2-isopropyl-2H-indazole-7-carboxamide fumarate] | 20.1 to 50
CC(C)n1cc2cccc(C(=O)NC3CCN(CC4CC4)CC3)c2n1 [Example 20, N—(N-cyclopropylmethylpiperidine-4-yl)-2-isopropyl-2H-indazole-7-carboxamide fumarate] | 5.1 to 20
CCn1cc2cccc(C(=O)NCC3C4CN(C5CCOCC5)CC34)c2n1 (centres unmarked) [Example 18, N—[N-(tetrahydropyran-4-yl)-3-azabicyclo[3.1.0]hexane-6-ylmethyl]-2-ethyl-2H-indazole-7-carboxamide oxalate] | 5.1 to 20
CC(C)n1cc2cccc(C(=O)NCC3C4CN(C5CCOCC5)CC34)c2n1 (centres unmarked) [Example 12, N—[N-(tetrahydropyran-4-yl)-3-azabicyclo[3.1.0]hexane-6-ylmethyl]-2-isopropyl-2H-indazole-7-carboxamide] | 1.1 to 5
CC(C)n1cc2cccc(C(=O)NCC3(O)CCN(C4CCOCC4)CC3)c2n1 [Example 27, N—[(N-tetrahydropyran-4-yl)-4-hydroxypiperidin-4-ylmethyl]-2-isopropyl-2H-indazole-7-carboxamide fumarate] | 1.1 to 5
CCn1cc2cccc(C(=O)NCC3C4CN(CCCOC)CC34)c2n1 (centres unmarked) [Example 5, N—[N-(3-methoxypropyl)-3-azabicyclo[3.1.0]hexane-6-ylmethyl]-2-ethyl-2H-indazole-7-carboxamide oxalate] | 1.1 to 5
CC(C)n1cc2cccc(C(=O)NCC3(O)CCN(CC(C)(C)O)CC3)c2n1 [Example 30, N—[N-(2-hydroxy-2-methylpropyl)-4-hydroxypiperidin-4-ylmethyl]-2-isopropyl-2H-indazole-7-carboxamide oxalate] | 1.1 to 5
COCCN1CCC(CNC(=O)c2cccc3cn(C(C)C)nc23)CC1 [Example 25, N—[N-(2-methoxyethyl)piperidin-4-ylmethyl]-2-isopropyl-2H-indazole-7-carboxamide fumarate] | 1.1 to 5
CC(C)n1cc2cccc(C(=O)NCC3C4CN(CC(C)(C)O)CC34)c2n1 (stereo not drawn) [Example 36, N—[N-(2-hydroxy-2-methylpropyl)-3-azabicyclo[3.1.0]hexane-6-ylmethyl]-2-isopropyl-2H-indazole-7-carboxamide L(+) Tartarate] | 5.1 to 20
CC(C)N1CCC(CNC(=O)c2cccc3cn(C(C)C)nc23)CC1 [Example 13, N—(N-isopropylpiperidin-4-ylmethyl)-2-isopropyl-2H-indazole-7-carboxamide fumarate] | ≤ 1
CC(C)n1cc2cccc(C(=O)NCC3(F)CCN(CC(C)(C)O)CC3)c2n1 [Example 35, N—[N-(2-hydroxy-2-methylpropyl)-4-fluoropiperidin-4-ylmethyl]-2-isopropyl-2H-indazole-7-carboxamide L(+) Tartarate] | 5.1 to 20
CC(C)n1cc2cccc(C(=O)NC3CCN(CC4CCC4)CC3)c2n1 [Example 21, N—(N-cyclobutylmethylpiperidine-4-yl)-2-isopropyl-2H-indazole-7-carboxamide fumarate] | 5.1 to 20
CC(C)n1cc2cccc(C(=O)NCC3CCN(CCF)CC3)c2n1 [Example 7, N—[N-(2-fluoroethyl)piperidin-4-ylmethyl]-2-isopropyl-2H-indazole-7-carboxamide] | 5.1 to 20
CC(C)N1CC2C(CNC(=O)c3cccc4cn(C(C)C)nc34)C2C1 (centres unmarked) [Example 16, N—(N-isopropyl-3-azabicyclo[3.1.0]hexane-6-ylmethyl)-2-isopropyl-2H-indazole-7-carboxamide fumarate] | 1.1 to 5
CC(C)n1cc2cccc(C(=O)NCC3CN(CC4CCOCC4)CCO3)c2n1 (centres unmarked) [Example 9, N—[(N-tetrahydropyran-4-ylmethyl)morpholine-2-ylmethyl]-2-isopropyl-2H-indazole-7-carboxamide] | 5.1 to 20
